Measurements published in US11672786B2, “Methods of treating diseases associated with repeat instability” (The Hospital for Sick Children, priority 2016, dated 2023).

How the values were obtained:
single CAG slip-out = test: in vitro repair assay by HeLa cell extracts, single repeat slip-out; assay type: biochemical, human
Source text: Panel A of […] is a schematic of the in vitro repair assay. Starting DNAs and repair products released the repeat-containing fragment, which is resolved on PAGE and assessed on a molar level by Southern blotting and densitometry. Repair of different DNA substrates containing a long (CAG)20 slip-out (Panel B of FIG. 3) long (CTG)20 slip-out (Panel C of FIG. 3), a single CAG slip-out (Panel D of FIG. 3) or a single G-T mismatch (Panel E of FIG. 3), in the absence or in the presence of NA. Slipped-DNA substrates were prepared from hybrids of (CAG)50●(CTG)30, (CAG)30●(CTG)50 or of (CAG)50●(CTG)49. Repair of the G-T mismatch reconstitutes a HindIII restriction site, as shown schematically. Graphs show percentage repair efficiencies to repaired product relative to all repeat-containing fragments in the lane, values are normalized to the NA-free efficiency. […]
To determine how the binding of NA to slipped DNA structures affects repair, a series of circular slipped heteroduplex substrates was made with an excess of repeats with a nick located either 5′ or 3′ of the slip-out (FIG. 3). […] All these substrates were processed in […] by HeLa extracts and then were assessed for repair. Repair products were analyzed by Southern blotting, probed for the repeat-containing fragment, and compared with starting material, which permitted quantitative assessment of repair efficiency at a molar level. […]

[1] = test system: Huntington's disease R6/2 transgenic mice, striatum; test: stereotaxic intra-striatal injections into R6/2 mice, CAG length Genescan analysis and instability index; assay type: in vivo, mouse
Experimental: This calculation corrects background using a relative height threshold and normalizes data efficiently, generating an “instability index” that represents the mean CAG length change from the main allele per cell in a population of cells: greater indices reflect greater expansions, lower indices-lower expansions.
Mouse handling and experimental procedures were conducted in accordance with the Osaka University guidelines for the welfare of animals. A single drug application involved six separate stereotactic injections, three injections of drug or saline into three different striatal regions of either the left or right striatum, respectively (outlined in FIG. 24). Under sterile conditions, 6-week-old R6/2 mice were anesthetized with 50 mg/kg pentobarbital sodium, and stereotaxically injected with 5 μl of saline (right side) or 500 μM NA dissolved in saline (left side) into three different sites of the striatum. The mice received injections once or twice bi-weekly, or weekly for 4 consecutive weeks. Stereotaxic injections were delivered to three sites within the striatum with the following coordinates: (anterior-posterior (AP)=0.0 mm, medial-lateral (ML)=1.5 mm from bregma, dorsal-ventral (DV)=2.5 mm below the dural surface; AP=1.0 mm, ML=1.5 mm, DV=2.5 mm; and AP=0.5 mm, ML=1.5 mm, DV=2.5 mm), using a 10-μl Hamilton microsyringe at a rate of 0.5 μL/min. Refer to FIG. 24 outlining dosing regimen. […] The control of our NA treatment is therefore the contralateral side of the striatum of each mouse. Both right and left striatum were assessed for repeat length at the HD CAG transgene and at endogenous, long CAG tracts. For the mice treated four times, DNAs from the tail prior to and following NA administration, as well as left and right frontal cortex and left and right cerebellum were harvested.
At 4 weeks after the first injection, DNA was isolated from mouse brain tissue as previously described (Nakamori et al. 2009, Neuromuscul. Disord., 19:759-62). PCR was performed as described previously (Tome et al., 2013, PLoS Genet., 9:e1003280), and PCR products were sized on an ABI310 Gene Analyser using […] 3.1 software (Life Technologies).
The procedure for instability index calculation was done as previously described (Lee et al., 2010, BMC Syst. Biol., 4:29) and is illustrated and outlined in FIG. 27A.

HT1080-(CAG)850 cells = test: cell toxicity, WST-1 assay; conditions: treated with NA for 72 hr
Experimental: Scale bar represents 20 μm.
The construction of the HT1080-(CAG)850 cell model was described previously (Sathasivam et al., 1997, Hum. Genet., 99:692-5). Briefly, HT1080 (ATCC) human fibrosarcoma cells were co-transfected with a plasmid (LC15-R) containing 800-850 (CTG)●(CAG) repeats (Nakatani et al., 2005, Nat. Chem. Biol., 1:39-43) and a plasmid encoding PhiC31 integrase. Transfection was performed with a Nucleofector (Lonza, Basel, Switzerland), and stably transfected clones were selected with puromycin. The HT1080-non transcribing (CAG)850 cell model was established by transfecting a plasmid modified from pLC16 by adding a SV40 polyadenylation signal downstream of the repeats, instead of LC15-R. The HT1080-non-transcribing (CAG)850 cell model was established by transfecting a plasmid modified from pLC16 by inserting an additional SV40 polyadenylation signal downstream of the repeats (in addition to the original polyadenylation signals located upstream of the repeats), so that CAG/CTG repeats are floxed by transcription-terminator elements. The AttB-PhiC31 system has been widely used for single copy integration. […]

naphthyridine-azaquinolone
effect on repair of a single repeat CAG or CTG slip-out (single CAG slip-out): unaffected
instability index of striatum ([1]; 1, 2 and 4 administrations): progressively reduced
effect on expanded repeat relative to saline-injected contralateral striatum ([1]; 6-week-old R6/2 mice, repeated intra-striatal injections over four weeks): led to seeming contractions of the expanded repeat
extrapolated repeat contraction in an HD-affected human ([1]; extrapolation from mice, treatments spanning one year): 5-25 repeats
difference of main peak CAG lengths saline- versus NA-treated versus tail ([1]; four injections, 500 μM NA intra-striatal): 4-7 CAG units
CAG length heterogeneity in cerebral cortex and cerebellum (non-injected tissues) ([1]; intra-striatal injections, left versus right side): identical patterns of CAG length heterogeneity in the right and left sides
rate of contractions in striatal neurons ([1]; mice with about 150 CAG repeats, four-week period of NA treatment, 500 μM intra-striatal): ~0.5 repeats lost/week
acute cytotoxicity (cell viability, WST-1) (HT1080-(CAG)850 cells): without causing acute cytotoxicity
